Test results reported in PubChem BioAssay AID2745 (NMMLSC, 2010).
The source made the active and inactive calls. How the calls were made is not given here.

assay: LAP4-GFP modulation potency in yeast, dose response, cell-based, MLPCN hits, flow cytometry (AID 2745);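 further: yeast exposed to compound for three hours at 30 degrees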; details: S. cerevisiae LAP4-GFP reporter, flow cytometry fluorescence; at 33 µM (top of the series)

Structure (SMILES) | LAP4-GFP fluorescence (kMESF)
CC1=C(C)/C(=N\OS(=O)(=O)c2ccc(C)cc2)C=CC1=O | 5.77 kMESF (inactive)
COc1ccc(NC2=C(Cl)C(=O)N(CCc3ccccc3)C2=O)c(OC)c1 | 3.18 kMESF (inactive)
O=C1c2ccccc2C(=O)N1OS(=O)(=O)c1ccccc1 | 8.7 kMESF (inactive)
CN(c1ccccc1)c1ccc(/C=c2\s/c(=C(/C#N)C(=O)C(C)(C)C)n(Cc3ccco3)c2=O)cc1 | 10.4 kMESF (inactive)
Nc1c(C(=O)c2cccs2)sc2nsc(SCCN3CCCCC3)c12 | -1.87 kMESF (inactive)
Cc1[nH][nH]c(=O)c1C(c1ccc(-c2ccc(Cl)c(Cl)c2)o1)c1c(C)[nH][nH]c1=O | 6.01 kMESF (inactive)
O=C(c1ccc(Cl)c([N+](=O)[O-])c1)N1CCN(c2ccccc2)CC1 | 8.26 kMESF (inactive)
O=C1ON=C(c2ccc(Cl)cc2)/C1=C/c1ccc(O)cc1 | 6.72 kMESF (inactive)
CC(=O)Nc1ncnc2c1c(-c1ccc(Cl)cc1)nn2C(C)(C)C | 5.09 kMESF (inactive)
COC(=O)CCC(=O)OC1(C)C(=O)C2=COC(c3ccc(OC)cc3)=CC2=C(Br)C1=O (configuration not stated) | 6.01 kMESF (inactive)
COC(=O)c1cc(N2C(=O)C3C(C2=O)C2(C)C=CC3(C)O2)ccc1Cl (configuration not stated) | 8.52 kMESF (inactive)
Cc1ccc(S(=O)(=O)/N=C(\Sc2ccccc2)c2ccccc2)cc1 | 6.11 kMESF (inactive)
COc1ccc(C(=O)NC(=S)NNC(=O)CCc2ccccc2)cc1 | 5.9 kMESF (inactive)
COc1ccccc1NC1=C(Cl)C(=O)N(c2ccccc2)C1=O | 2.98 kMESF (inactive)
O=[N+]([O-])c1ccc(Sc2nc3ccccc3o2)c([N+](=O)[O-])c1 | 4.88 kMESF (inactive)
Cc1[nH]c2ccccc2c1C(=O)COC(=O)c1ccc([N+](=O)[O-])s1 | 6.02 kMESF (inactive)
COc1ccc(OCC(=O)NNC(=S)NC(=O)C2CCCCC2)cc1 | 14.4 kMESF (inactive)
Cc1c(N2C(=O)/C(=C\c3ccccc3O)SC2=S)c(=O)n(-c2ccccc2)n1C | 10.8 kMESF (inactive)
O=C1C(Cl)=C(N2CCN(Cc3ccccc3)CC2)C(=O)N1c1ccccc1 | 4.11 kMESF (inactive)
Cc1cccc(NC(c2ccc(C)s2)c2ccc3ccc(C)nc3c2O)n1 (configuration not stated) | 16.8 kMESF (inactive)
CCc1nc2ccccc2c(=O)n1NC(=O)c1c(O)c2ccccc2n(CC)c1=O | 3.31 kMESF (inactive)
N#Cc1ccc(N=c2ssnc2Cl)cc1 | 9.41 kMESF (inactive)

Structure (SMILES) | LAP4-GFP fluorescence (kMESF)
O=C(CSC1=NS(=O)(=O)c2ccccc21)Nc1ccccc1 | 7.82 kMESF (inactive)
CCOC(=O)CSC1=NC(=O)/C(=C/c2ccc(OC)cc2)S1 | 6.28 kMESF (inactive)
O=C(Nc1cccc(C(F)(F)F)c1)Oc1ccc(Cl)c2cccnc12 | 12.8 kMESF (inactive)
Cc1cccc(N=C2NC(=O)/C(=C/C=C/c3ccco3)S2)c1C | 13.7 kMESF (inactive)
Cc1ccc(N=Nc2ccc(O)c3ncccc23)cc1 | 4.95 kMESF (inactive)
CN(C)C(=O)Oc1ccnc2cc(Cl)ccc12 | 2.83 kMESF (inactive)
N/C(=N\OC(=O)c1cccc(Br)c1)c1ccccc1 | 4.51 kMESF (inactive)
O=C(Nc1nnc(-c2ccc(F)cc2)o1)c1cccc([N+](=O)[O-])c1 | 6.91 kMESF (inactive)
O=C1/C(=C\c2ccc(O)c(O)c2)SC(=S)N1Cc1ccccc1 | -9.95 kMESF (inactive)
CN(C)NC(=S)Nc1ccc(S(=O)(=O)N2CCCCC2)cc1 | 3.13 kMESF (inactive)
O=S(=O)(c1ccccc1)c1ccc(C(F)(F)F)cn1 | 4.29 kMESF (inactive)
Cc1ccc(-c2nn(C(C)(C)C)c3ncnc(N)c23)cc1 | 8.82 kMESF (inactive)
Cc1ccc(C(=O)Oc2oc(-c3ccccc3)nc2C=Nc2ccc(N(C)C)cc2)cc1 | 6.02 kMESF (inactive)
COc1ccc([C@]2(C(C)C)ON(c3ccccc3C(F)(F)F)C2=O)cc1 | 4.65 kMESF (inactive)
C[n+]1ccc(/C=C/c2c[nH]c3ccccc23)cc1 | 9.29 kMESF (inactive)
CCOC(=O)CS(=O)(=O)c1nc(-c2ccc(F)cc2)cc(C(F)(F)F)n1 | 11.2 kMESF (inactive)
COc1ccccc1-c1nc2s/c(=C\c3cccs3)c(=O)n2n1 | 5.46 kMESF (inactive)
CCOC(=O)C1=C(O)c2ccccc2C(=O)/C1=C\c1ccc(C)cc1 | -35.8 kMESF (inactive)
Cc1ccc2c(nc3s/c(=C\c4ccc(-c5ccccc5C(=O)O)o4)c(=O)n32)c1C | 15.5 kMESF (inactive)
Cc1ccc2[nH]c(C)c(/C=C/c3cc[n+](C)cc3)c2c1 | 8.71 kMESF (inactive)
O=C(NC(=S)Nc1ccc2oc(=O)ccc2c1)c1cccc(Cl)c1 | 3.47 kMESF (inactive)
COc1ccc(-c2cc3nc4n(c(=O)c3s2)CCC4)cc1 | 3.68 kMESF (inactive)

Structure (SMILES) | LAP4-GFP fluorescence (kMESF)
CC(=O)N(C(C)=O)c1ncnc2c1c(-c1ccc(Cl)cc1)nn2C(C)(C)C | 3.97 kMESF (inactive)
O=c1c2cnn(-c3ccccc3)c2ncn1Cc1ccco1 | 2.63 kMESF (inactive)
CN(C)c1ccc(N=Cc2nc(-c3ccccc3)oc2OC(=O)c2ccccc2)cc1 | 4.09 kMESF (inactive)
O=C(Oc1oc(-c2ccco2)nc1C=Nc1ccccc1)c1ccco1 | 23.7 kMESF (inactive)
CC(Oc1cc2oc(=O)c3c(c2cc1Cl)CCC3)C(=O)NCCN1CCOCC1 (configuration not stated) | 2.43 kMESF (inactive)
CCOc1ccc(C(C)=O)cc1N1C(=O)C2C3C=CC(O3)C2C1=O (configuration not stated) | 14 kMESF (inactive)
CC(Oc1ccc2ccccc2c1)C(=O)NNC(=S)NC(=O)c1ccco1 (configuration not stated) | 13.9 kMESF (inactive)
N#C/C(=C\c1cc(Br)ccc1F)C(=O)NC1CC1 | 18.3 kMESF (inactive)
Cc1ccc(NC(=O)c2cc(N3C(=O)C=CC3=O)ccc2N2CCOCC2)cc1Cl | 10.5 kMESF (inactive)
C/C(=N\Nc1ncnc2sc(C)c(C)c12)c1ccccn1 | -7.63 kMESF (inactive)
O=C(COc1ccccc1)NNC(=S)NC(=O)c1ccccc1 | 4.36 kMESF (inactive)
O=[N+]([O-])c1cc(CN2CCN(c3ccccc3)CC2)c(O)c2ncccc12 | 14.7 kMESF (inactive)
O=C1N(c2ccccc2C(F)(F)F)O[C@@]1(c1ccccc1)C1CCCCC1 | 2.73 kMESF (inactive)
Cc1ccccc1[C@@]1(C)ON(c2ccccc2C(F)(F)F)C1=O | 5.8 kMESF (inactive)
CCCCCn1c(=O)c(C(=O)Nc2nc3ccccc3[nH]2)c(O)c2ccccc21 | 2.43 kMESF (inactive)
COc1ccccc1N1C(=O)c2cccc3c(C(=O)O)ccc(c23)C1=O | 6.85 kMESF (inactive)
CCOC(=O)c1c(C)oc2c1c(C(c1ccncc1)N1CCOCC1)c(O)c1ccccc12 (configuration not stated) | 6.29 kMESF (inactive)
COC(=O)CCCC1=CC2=CC(=O)C(C)(OC(=O)CCc3ccccc3)C(=O)C2=CO1 (configuration not stated) | 3.13 kMESF (inactive)
Cc1ccc2nc(/C(C#N)=C/c3ccc(O)c(O)c3)[nH]c2c1 | 4.39 kMESF (inactive)
O=C(Nc1ccccc1)ON=C1CCCC1 | 4.79 kMESF (inactive)
Cc1ccc(/C=C2\C(=O)NC(=S)N(c3ccccc3F)C2=O)s1 | 5.57 kMESF (inactive)
C[C@@]12C(=O)OC(=O)[C@]1(C)C1CCC2O1 | 9.15 kMESF (inactive)

Structure (SMILES) | LAP4-GFP fluorescence (kMESF)
CC(=O)N(C1=C(Cl)C(=O)c2ccccc2C1=O)C1CCCCC1 | -2.43 kMESF (inactive)
CCN(CC(=O)NC(C)(C)C)C(=O)COc1c(Cl)cc(Cl)c2ccc(C)nc12 | 11.7 kMESF (inactive)
CCOc1ccc(NC2=C(Cl)C(=O)N(Cc3ccccc3)C2=O)cc1 | 6.11 kMESF (inactive)
Cc1cc(Br)c2c(c1)/C(=C/C(=O)c1cccs1)C(=O)N2 | 6.22 kMESF (inactive)
C=CCN1C(=O)/C(=C/c2cccs2)C(=O)NC1=S | 4.47 kMESF (inactive)
O=S(=O)(/N=C(/Sc1ccccc1)c1ccccc1)c1ccccc1 | 11.4 kMESF (inactive)
COc1cccc(/C=C2\SC(=S)N(CCCC(=O)Nc3ccc(C(=O)O)cc3)C2=O)c1 | 3.71 kMESF (inactive)
COc1ccc(C(=O)NC(=S)NNC(=O)c2cnccn2)cc1OC | 9.2 kMESF (inactive)
Cc1ccc(/C=C2\SC(=S)N(CC3CCCO3)C2=O)o1 (configuration not stated) | 4.89 kMESF (inactive)
O=C(/C=C/c1ccccc1)c1cc(Br)ccc(=O)c1O | -10.1 kMESF (inactive)
COc1cc(/C=C/c2ccc3c(Br)cc(Br)c(O)c3n2)ccc1O | 11.7 kMESF (inactive)
CC(=O)NN1C(=O)/C(=C/c2ccc(Br)o2)SC1=S | 2.52 kMESF (inactive)
O=C(c1ccc(Cl)cc1)N1CCN(c2cccc3[nH]ccc23)CC1 | 6.45 kMESF (inactive)
COc1ccc(N2C(=O)C(Cl)=C(NCc3ccccc3)C2=O)cc1 | 6.61 kMESF (inactive)
O=C(c1ccc([N+](=O)[O-])o1)N1CCN(c2nc3c(F)cc(F)cc3s2)CC1 | -0.9 kMESF (inactive)
COc1ccc(C2=CC3=C(Br)C(=O)C(C)(O)C(=O)C3=CO2)cc1 (configuration not stated) | 0.34 kMESF (inactive)
O=C1c2cccc3c([N+](=O)[O-])ccc(c23)C(=O)N1c1ccccn1 | 7.78 kMESF (inactive)
COC(=O)CCS(=O)(=O)c1nc(-c2ccccc2)cc(C(F)(F)F)n1 | 20.1 kMESF (inactive)
CCN(CC)C(=S)SSC(=S)N(CC)CC | 20.4 kMESF (inactive)
CC(C)[C@]1(c2ccccc2)ON(c2ccccc2C(F)(F)F)C1=O | 2.53 kMESF (inactive)
O=c1c2sc(-c3ccccc3)cc2nc2n1CCC2 | 5.96 kMESF (inactive)
